The subject of this data set is CCRIS mutagenicity, Ames/micronucleus/aberration tests. The data set is described as follows: CCRIS mutagenicity studies.
Setting [1] is: Test System: AMES SALMONELLA TYPHIMURIUM, Strain/Indicator: TA98, Metabolic Activation: NONE, Method: PREINCUBATION
[2] abbreviates: Test System: AMES SALMONELLA TYPHIMURIUM, Strain/Indicator: TA100, Metabolic Activation: NONE, Method: PREINCUBATION
Where [3] appears, read: Test System: AMES SALMONELLA TYPHIMURIUM, Strain/Indicator: TA1535, Metabolic Activation: NONE, Method: PREINCUBATION

SMILES strings stand for the structures. Calls of active or inactive are those of the source. No rule for the calls is given here.

Turning to `COc1ccc2cc1Oc1ccc(cc1)C[C@H]1c3cc(c(OC)cc3CCN1C)Oc1c(OC)c(OC)cc3c1[C@H](C2)N(C)CC3`, the mutagenic call reads like this: (Test System: AMES SALMONELLA TYPHIMURIUM, Strain/Indicator: TA98, Metabolic Activation: NONE, Method: STANDARD PLATE) “inactive; negative”; (Test System: AMES SALMONELLA TYPHIMURIUM, Strain/Indicator: TA98, Metabolic Activation: RAT, LIVER, S-9, AROCLOR 1254, Method: STANDARD PLATE) “active; positive”; (Test System: AMES SALMONELLA TYPHIMURIUM, Strain/Indicator: TA100, Metabolic Activation: NONE, Method: STANDARD PLATE) “inactive; negative”; (Test System: AMES SALMONELLA TYPHIMURIUM, Strain/Indicator: TA100, Metabolic Activation: RAT, LIVER, S-9, AROCLOR 1254, Method: STANDARD PLATE) “inactive; negative”.
Regarding `CN(C)C(=N)N=C(N)N`, the mutagenic call (End Point: In vivo micronucleus, Test System: Bone marrow erythrocytes, Species: Mouse, Strain/Sex: Swiss albino/Male, Route: Oral) was “inactive; negative”.
For `CCC(C)C(C)CO` (stereo not drawn), the mutagenic call is, setting by setting: (Test System: AMES SALMONELLA TYPHIMURIUM, Strain/Indicator: TA97, Metabolic Activation: HAMSTER, LIVER, S-9, AROCLOR 1254 (10 OR 30%), Method: PREINCUBATION) “inactive; negative”; (Test System: AMES SALMONELLA TYPHIMURIUM, Strain/Indicator: TA97, Metabolic Activation: NONE, Method: PREINCUBATION) “inactive; negative”; (Test System: AMES SALMONELLA TYPHIMURIUM, Strain/Indicator: TA97, Metabolic Activation: RAT, LIVER, S-9, AROCLOR 1254 (10%), Method: PREINCUBATION) “inactive; negative”; (Test System: AMES SALMONELLA TYPHIMURIUM, Strain/Indicator: TA97, Metabolic Activation: RAT, LIVER, S-9, AROCLOR 1254 (30%), Method: PREINCUBATION) “inactive; negative”; (Test System: AMES SALMONELLA TYPHIMURIUM, Strain/Indicator: TA98, Metabolic Activation: HAMSTER, LIVER, S-9, AROCLOR 1254 (10 OR 30%), Method: PREINCUBATION) “inactive; negative”; under setting [1], “inactive; negative”. For the same compound, the mutagenic call (Test System: AMES SALMONELLA TYPHIMURIUM, Strain/Indicator: TA98, Metabolic Activation: RAT, LIVER, S-9, AROCLOR 1254 (10%), Method: PREINCUBATION) was “inactive; negative”; the mutagenic call (Test System: AMES SALMONELLA TYPHIMURIUM, Strain/Indicator: TA98, Metabolic Activation: RAT, LIVER, S-9, AROCLOR 1254 (30%), Method: PREINCUBATION) was “inactive; negative”; the mutagenic call (Test System: AMES SALMONELLA TYPHIMURIUM, Strain/Indicator: TA100, Metabolic Activation: HAMSTER, LIVER, S-9, AROCLOR 1254 (10 OR 30%), Method: PREINCUBATION) was “inactive; negative”; the mutagenic call under setting [2] is “inactive; negative”; the mutagenic call (Test System: AMES SALMONELLA TYPHIMURIUM, Strain/Indicator: TA100, Metabolic Activation: RAT, LIVER, S-9, AROCLOR 1254 (10%), Method: PREINCUBATION) was “inactive; negative”; the mutagenic call (Test System: AMES SALMONELLA TYPHIMURIUM, Strain/Indicator: TA100, Metabolic Activation: RAT, LIVER, S-9, AROCLOR 1254 (30%), Method: PREINCUBATION) was “inactive; negative”. For the same compound, the mutagenic call reads like this: (Test System: AMES SALMONELLA TYPHIMURIUM, Strain/Indicator: TA1535, Metabolic Activation: HAMSTER, LIVER, S-9, AROCLOR 1254 (10 OR 30%), Method: PREINCUBATION) “inactive; negative”; under setting [3], “inactive; negative”; (Test System: AMES SALMONELLA TYPHIMURIUM, Strain/Indicator: TA1535, Metabolic Activation: RAT, LIVER, S-9, AROCLOR 1254 (10%), Method: PREINCUBATION) “inactive; negative”; (Test System: AMES SALMONELLA TYPHIMURIUM, Strain/Indicator: TA1535, Metabolic Activation: RAT, LIVER, S-9, AROCLOR 1254 (30%), Method: PREINCUBATION) “inactive; negative”.
Take `Brc1cccc(-c2ccccc2)c1`: the mutagenic call is “inactive; negative” (Test System: AMES SALMONELLA TYPHIMURIUM, Strain/Indicator: TA98, Metabolic Activation: HAMSTER, LIVER, S-9, AROCLOR 1254, Method: PREINCUBATION); “inactive; negative” under setting [1]; “inactive; negative” (Test System: AMES SALMONELLA TYPHIMURIUM, Strain/Indicator: TA98, Metabolic Activation: RAT, LIVER, S-9, AROCLOR 1254, Method: PREINCUBATION); “inactive; negative” (Test System: AMES SALMONELLA TYPHIMURIUM, Strain/Indicator: TA100, Metabolic Activation: HAMSTER, LIVER, S-9, AROCLOR 1254, Method: PREINCUBATION); “inactive; negative” under setting [2]; “inactive; negative” (Test System: AMES SALMONELLA TYPHIMURIUM, Strain/Indicator: TA100, Metabolic Activation: RAT, LIVER, S-9, AROCLOR 1254, Method: PREINCUBATION). In addition, the mutagenic call is, setting by setting: (Test System: AMES SALMONELLA TYPHIMURIUM, Strain/Indicator: TA1535, Metabolic Activation: HAMSTER, LIVER, S-9, AROCLOR 1254, Method: PREINCUBATION) “inactive; negative”; under setting [3], “inactive; negative”; (Test System: AMES SALMONELLA TYPHIMURIUM, Strain/Indicator: TA1535, Metabolic Activation: RAT, LIVER, S-9, AROCLOR 1254, Method: PREINCUBATION) “inactive; negative”; (Test System: AMES SALMONELLA TYPHIMURIUM, Strain/Indicator: TA1537, Metabolic Activation: HAMSTER, LIVER, S-9, AROCLOR 1254, Method: PREINCUBATION) “inactive; negative”; (Test System: AMES SALMONELLA TYPHIMURIUM, Strain/Indicator: TA1537, Metabolic Activation: NONE, Method: PREINCUBATION) “inactive; negative”; (Test System: AMES SALMONELLA TYPHIMURIUM, Strain/Indicator: TA1537, Metabolic Activation: RAT, LIVER, S-9, AROCLOR 1254, Method: PREINCUBATION) “inactive; negative”.
